# Measured values as given in US20260193254A1, “2-OXOQUINAZOLINE CRYSTALLINE FORMS” (IDEAYA Biosciences, Inc., priority 2022, published 2026).
# Tests used:
# Format in all cases: physicochemical
# [1] = Variable humidity and temperature XRPD experiments
# [2] = Hygroscopicity: water sorption and desorption by dynamic vapor sorption (DVS); conditions: for form change after the DVS test: XRPD after DVS; for humidity at which water is absorbed again / water content restored (conversion back to the hydrate): DVS and variable humidity XRPD
# Description: In some embodiments, the crystalline form described herein is further characterized by is further characterized by a dynamic vapor sorption (DVS) profile. In some embodiments, a DVS is recorded according to the method as described herein with a cycle of 40-0-95-0-40% RH at 25° C.
# Water sorption and desorption behaviors of Form A, Form C, Form D, and Form T were investigated by DVS at 25° C. with a cycle of 40-0-95-0-40% RH. Dm/dt was 0.002. Minimum equilibration time was 60 min. Maximum equilibration time was 360 min. XRPD was measured after DVS test to determine potential form change.
# [3] = Variable humidity and temperature XRPD experiments; conditions: for temperature above which the form starts to lose water: based on DSC results; for dehydration product (form obtained on loss of water): low humidity or heating above the dehydration temperature
# Description: Based on DVS and DSC results of Form C, Form C starts to loss water when humidity is below 30% or when temperature is higher than about 44° C. […] In order to determine identity of potential form changes after the dehydration and upon the solid-solid transition, variable humidity and variable temperature XRPD techniques were applied. XRPD patterns of the sample were measured online under 25° C./ambient environment (initial)-120° C./N2 protection-25° C./ambient environment-25° C./80% RH (40 min)-25° C./0% RH (15 h), and 25° C./ambient environment (initial)-250° C./N2 protection-25° C./ambient environment. […] Form L coverts back to Form C after exposure to 25° C./80% RH for 40 min.
# Based on DVS and DSC results of Form D, Form D starts to loss water when humidity is below 10% or when temperature is higher than 46° C. In order to determine identity of the dehydration product, variable humidity and variable temperature XRPD techniques were applied. XRPD patterns of the sample were measured online with a temperature cycle of 25° C./ambient environment (initial)-130° C./N2 protection (10 min)-25° C./N2 protection-25° C./ambient environment (3h) and two water sorption and desorption cycles of 50% RH (initial)-90% RH (3h)-60% RH (2h)-40% RH (2h)-20% RH (3h)-10% RH (3h)-0% RH (6h)-10% RH (3h)-20% RH (3h)-50% RH at 25° C. […] (higher than dehydration temperature). Form S converts back to Form D after exposure to ambient condition for 3 h.
# In order to investigate potential form change of Form A upon heating, variable temperature XRPD technique was applied. XRPD patterns of the sample were measured online with a temperature cycle of 25° C. (initial)-50° C./N2 protection-70° C./N2 protection-250° C./N2 protection-25° C./N2 protection-25° C./ambient condition (3h). […] Form A converts to Form U when temperature is 250° C., and Form U converts to Form T after cooling to 25° C.
# [4] = Equilibrium solubility in FeSSIF and FaSSIF; conditions: for XRPD of solid after solubility test / final pH / Solubility / impurity in solubility sample: 24 hours; for Solubility / solubility at 24 h: target concentration 1 mg/mL, HPLC method 1 or 2 (footnote); for impurity in solubility sample: no unit printed for impurity (column head mg/mL); for solubility at 24 h: 37 °C, thermodynamic from solid
# Description: (§1) Solid part and liquid part were separated by filtration. Solubility was measured by HPLC. Solid part (wet cake) was investigated by XRPD.
# [5] = Grinding simulation experiments - wet grinding (granulation)
# Description: Water or ethanol was added drop wise to about 20 mg of Form A, Form D, or Form T until solid was wetted sufficiently. Vortex was applied between each addition. Samples were dried under ambient condition for 10 min. Potential form transition and degree of crystallinity were evaluated by XRPD.
# [6] = Grinding simulation experiments - dry grinding
# Description: About 20 mg of Form A, Form D, and Form T were ground manually with a mortar and a pestle for 5 min or 1 min. Potential from transition and degree of crystallinity were evaluated by XRPD.
# [7] = Bulk stability of crystalline forms; parameters: key: Color A: All No change of color; conditions: Solid state
# From the text: (§2) Solids obtained after bulk stability study were characterized by XRPD and HPLC.
# [8] = Bulk stability of crystalline forms; conditions: for Purity, Bulk (HPLC): Solid state
# From the text: as §2
# [9] = Equilibrium solubility in SGF (pH 2.0), 0.1 N HCl (pH 1.2) and phosphate buffer (pH 8.0); conditions: solid from solubility study with Form A in 0.1 N HCl solution
# Description: as §1
# [10] = 25° C./92% RH, open container, 1 week
# [11] = 25° C./92% RH, open container, 2 weeks
# [12] = 40° C./75% RH, open container, 1 week
# [13] = 40° C./75% RH, open container, 2 weeks
# [14] = 60° C., tight container, 1 week
# [15] = 60° C., tight container, 2 weeks
structure (smiles),measurement,setting,value
"Nc1nc(=O)n(-c2ccccc2Cl)c2nc(C(F)(F)F)ccc12 [Form C, 4-Amino-1-(2-chlorophenyl)-7-(trifluoromethyl)pyrido[2,3-d]pyrimidin-2(1H)-one]",XRPD (XRPD method 2),[1]; VT1 25° C./60% RH (initial),Form C
same,XRPD (XRPD method 2),[1]; VT7 250° C./60% RH (10 min),Solid state Form V
same,XRPD (XRPD method 2),[1]; VT8 25° C./60% RH (final),Solid state Form V
same,humidity below which the form starts to lose water,[2]; 25° C.,below 30 % RH
same,form change after the DVS test,[2],A mixture of Form L and Form C was obtained
same,XRPD (XRPD method 2),[3]; VT2 120° C./60% RH (10 min),Form L
same,XRPD (XRPD method 2),[3]; VT4 25° C./80% RH (40 min),Form C
same,XRPD (XRPD method 2),[3]; VT6 25° C./60% RH (initial),Form C
same,temperature above which the form starts to lose water,[3],higher than 44 °C
same,dehydration product (form obtained on loss of water),[3],Form L
same,XRPD of solid after solubility test,"[4]; FaSSIF, pH 6.5, 37° C.",Form C
same,final pH,"[4]; FaSSIF, pH 6.5, 37° C.",6.6
same,Solubility,"[4]; FaSSIF, pH 6.5, 37° C.",0.06 mg/mL
same,impurity in solubility sample,"[4]; FaSSIF, pH 6.5, 37° C.",no impurity
same,XRPD of solid after solubility test,"[4]; FeSSIF, pH 5.0, 37° C.",Form C
same,final pH,"[4]; FeSSIF, pH 5.0, 37° C.",5.2
same,Solubility,"[4]; FeSSIF, pH 5.0, 37° C.",0.17 mg/mL
same,impurity in solubility sample,"[4]; FeSSIF, pH 5.0, 37° C.",no impurity
"Nc1nc(=O)n(-c2ccccc2Cl)c2nc(C(F)(F)F)ccc12 [Form D, 4-Amino-1-(2-chlorophenyl)-7-(trifluoromethyl)pyrido[2,3-d]pyrimidin-2(1H)-one]",XRPD after wet grinding,[5]; Ethanol,substantially amorphous
same,XRPD after wet grinding,[5]; Water,No form change
same,form change after granulation with water,"[5]; wet grinding, XRPD",no form change
same,tolerance to granulation with ethanol or water,"[5]; wet grinding, XRPD",poor tolerance
same,tolerance to granulation with water,"[5]; wet grinding, XRPD",good tolerance
same,XRPD (XRPD method 2),[1]; VRH1 21° C./50% RH (initial),Form D
same,XRPD (XRPD method 2),[1]; VRH2 21° C./90% RH (3 h),Form D
same,XRPD (XRPD method 2),[1]; VRH3 21° C./60% RH (2 h),Form D
same,XRPD (XRPD method 2),[1]; VRH4 21° C./40% RH (2 h),Form D
same,XRPD (XRPD method 2),"[1]; VRH5 21° C./20% RH (3 h), desorption",Form D
same,XRPD (XRPD method 2),"[1]; VRH6 21° C./10% RH (3 h), desorption",Form S
same,XRPD (XRPD method 2),[1]; VRH7 21° C./0% RH (6 h),Form S
same,XRPD (XRPD method 2),"[1]; VRH8 21° C./10% RH (3 h), after 0% RH",Form S
same,XRPD (XRPD method 2),"[1]; VRH9 21° C./20% RH (3 h), after 0% RH",Form S
same,XRPD (XRPD method 2),[1]; VRH10 21° C./50% RH (final),Form D
same,XRPD (XRPD method 2),[1]; VT9 25° C./55% RH (initial),Form D
same,XRPD (XRPD method 2),[1]; VT10 130° C./55% RH (10 min),Form S
same,XRPD (XRPD method 2),[1]; VT11 25° C./N2 protection (10 min),Form S
same,XRPD (XRPD method 2),[1]; VT12 25° C./55% RH (3 h),Form D
same,XRPD after dry grinding,[6]; Dry grinding for 1 min,substantially amorphous
same,XRPD after dry grinding,[6]; Dry grinding for 5 min,substantially amorphous
same,tolerance to dry grinding,"[6]; ground manually with mortar and pestle, 5 min or 1 min, XRPD",poor tolerance
same,humidity at which water is absorbed again / water content restored (conversion back to the hydrate),[2]; 25° C.,higher than 20 % RH
same,hygroscopicity,"[2]; DVS at 25° C., cycle 40-0-95-0-40% RH",slightly hygroscopic
same,water uptake,"[2]; DVS, from 40% to 95% RH, 25° C.",about 0.9%
same,form change after the DVS test,[2],No form change
same,Color,[7]; [10],A
same,Color,[7]; [11],A
same,Color,[7]; [12],A
same,Color,[7]; [13],A
same,Color,[7]; [14],A
same,Color,[7]; [15],A
same,"Purity, Bulk (HPLC)",[8]; [10],98.0%
same,"Purity, Bulk (HPLC)",[8]; [11],98.0%
same,"Purity, Bulk (HPLC)",[8]; [12],98.1%
same,"Purity, Bulk (HPLC)",[8]; [13],98.2%
same,"Purity, Bulk (HPLC)",[8]; [14],98.1%
same,"Purity, Bulk (HPLC)",[8]; [15],97.8%
same,Initial purity,"[8]; before stress, HPLC",98.0%
same,chemical stability and physical stability (bulk stability),"[8]; stressed under 25° C./92 RH, 40% C/75% RH and 60° C., XRPD and HPLC",good chemical stability and physical stability
same,XRPD (XRPD method 2),[3]; VT13 25° C./55% RH (final),Form D
same,temperature above which the form starts to lose water,[3],higher than 46 °C
same,dehydration product (form obtained on loss of water),[3],Form S
same,XRPD of solid after solubility test,"[4]; FaSSIF, pH 6.5, 37° C.",Form D
same,final pH,"[4]; FaSSIF, pH 6.5, 37° C.",6.6
same,Solubility,"[4]; FaSSIF, pH 6.5, 37° C.",0.09 mg/mL
same,impurity in solubility sample,"[4]; FaSSIF, pH 6.5, 37° C.",no impurity
same,XRPD of solid after solubility test,"[4]; FeSSIF, pH 5.0, 37° C.",Form D
same,final pH,"[4]; FeSSIF, pH 5.0, 37° C.",5.2
same,Solubility,"[4]; FeSSIF, pH 5.0, 37° C.",0.21 mg/mL
same,impurity in solubility sample,"[4]; FeSSIF, pH 5.0, 37° C.",no impurity
"Nc1nc(=O)n(-c2ccccc2Cl)c2nc(C(F)(F)F)ccc12 [Form E, 4-Amino-1-(2-chlorophenyl)-7-(trifluoromethyl)pyrido[2,3-d]pyrimidin-2(1H)-one]",solubility at 24 h,"[4]; pH 5, fessif, FeSSIF, pH 5.0, 37° C.",0.14 mg/mL
same,solubility at 24 h,"[4]; pH 6.5, fassif, FaSSIF, pH 6.5, 37° C.",0.06 mg/mL
same,XRPD of solid after solubility test,"[4]; FaSSIF, pH 6.5, 37° C.",Form E
same,final pH,"[4]; FaSSIF, pH 6.5, 37° C.",6.6
same,XRPD of solid after solubility test,"[4]; FeSSIF, pH 5.0, 37° C.",Form E
same,final pH,"[4]; FeSSIF, pH 5.0, 37° C.",5.2
"Nc1nc(=O)n(-c2ccccc2Cl)c2nc(C(F)(F)F)ccc12 [Form F, 4-Amino-1-(2-chlorophenyl)-7-(trifluoromethyl)pyrido[2,3-d]pyrimidin-2(1H)-one]",XRPD of solid after solubility test,"[4]; FaSSIF, pH 6.5, 37° C.",Form F
same,final pH,"[4]; FaSSIF, pH 6.5, 37° C.",6.6
same,XRPD of solid after solubility test,"[4]; FeSSIF, pH 5.0, 37° C.",Form F
same,final pH,"[4]; FeSSIF, pH 5.0, 37° C.",5.0
same,Solubility,"[4]; FeSSIF, pH 5.0, 37° C.",0.24 mg/mL
"Nc1nc(=O)n(-c2ccccc2Cl)c2nc(C(F)(F)F)ccc12 [Form L, 4-Amino-1-(2-chlorophenyl)-7-(trifluoromethyl)pyrido[2,3-d]pyrimidin-2(1H)-one]",humidity at which water is absorbed again / water content restored (conversion back to the hydrate),[2]; 25° C.,≥ 80 % RH
same,form after exposure to 25° C./80% RH for 40 min,[3]; variable humidity XRPD,Form C
same,form obtained on heating to 250° C.,"[3]; variable temperature XRPD, N2 protection",solid state Form V
"Nc1nc(=O)n(-c2ccccc2Cl)c2nc(C(F)(F)F)ccc12 [Form R, 4-Amino-1-(2-chlorophenyl)-7-(trifluoromethyl)pyrido[2,3-d]pyrimidin-2(1H)-one]",impurity from HPLC result,[9],about 68.5%
"Nc1nc(=O)n(-c2ccccc2Cl)c2nc(C(F)(F)F)ccc12 [Form S, 4-Amino-1-(2-chlorophenyl)-7-(trifluoromethyl)pyrido[2,3-d]pyrimidin-2(1H)-one]",humidity at which water is absorbed again / water content restored (conversion back to the hydrate),[2]; 25° C.,higher than 20 % RH
same,form after exposure to ambient condition for 3 h,"[3]; XRPD, 25° C.",Form D
"Nc1nc(=O)n(-c2ccccc2Cl)c2nc(C(F)(F)F)ccc12 [Form U, 4-Amino-1-(2-chlorophenyl)-7-(trifluoromethyl)pyrido[2,3-d]pyrimidin-2(1H)-one]",form after cooling to 25° C.,[3]; after heating to 250° C.,Form T
